US8597875B2, “Method for diagnosing liver toxicity with sex specific biomarkers” (BASF SE, priority 2008, dated 2013)

Assays:
[1] = tested on: male rats; experiment: Plasma metabolite profiling (GC-MS/LC-MS) for liver toxicity markers, 28-day gavage study, male rats; format: in vivo, rat; conditions: Table 3, male rats
Method: (§1) A group of each 5 male and female rats was dosed once daily with the indicated compounds (see tables below) at 10 and 100 mg/kg body weight per gavage over 28 days. Additional groups of each 5 male and female animals served as controls. Before starting the treatment period, animals, which were 62-64 days old when supplied, were acclimatized to the housing and environmental conditions for 7 days. All animals of the animal population were kept under the same constant temperature (20-24±3° C.) and the same constant humidity (30-70%). Each animal of the animal population was kept in a separate cage. The animals of the animal population are fed ad libitum. The food to be used was be essentially free of chemical or microbial contaminants. Drinking water was also offered ad libitum. Accordingly, the water was be free of chemical and microbial contaminants as laid down in the European Drinking Water Directive 98/83/EG. The illumination period was 12 hours light followed by 12 hours darkness (12 hours light, from 6:00 to 18:00, and 12 hours darkness, from 18:00 to 6:00).
(§2) In the morning of day 7, 14, and 28, blood was taken from the retroorbital venous plexus from fasted anaesthetized animals. From each animal, 1 ml of blood was collected with EDTA as anticoagulant. The samples were be centrifuged for generation of plasma. All plasma samples were covered with a N2 atmosphere and then stored at −80° C. until analysis.
(§3) For mass spectrometry-based metabolite profiling analyses plasma samples were extracted and a polar and a non-polar fraction was obtained. For GC-MS analysis, the non-polar fraction was treated with methanol under acidic conditions to yield the fatty acid methyl esters. Both fractions were further derivatised with O-methyl-hydroxyamine hydrochloride and pyridine to convert Oxo-groups to O-methyloximes and subsequently with a silylating agent before analysis. In LC-MS analysis, both fractions were reconstituted in appropriate solvent mixtures. HPLC was performed by gradient elution on reversed phase separation columns. For mass spectrometric detection metanomics proprietary technology was applied which allows target and high sensitivity MRM (Multiple Reaction Monitoring) profiling in parallel to a full screen analysis.
(§4) Following comprehensive analytical validation steps, the data for each analyte were normalized against data from pool samples. These samples were run in parallel through the whole process to account for process variability. The significance of treatment group values specific for sex, dose group and metabolite was determined by comparing means of the treated groups to the means of the respective untreated control groups using WELCH-test. Normalized treatment group values and their significance were fed into a database for further statistics and data mining processes.
(§5) The changes of the group of plasma metabolites being indicative for liver toxicity after treatment of the rats are shown in the following tables: […]

[2] = tested on: female rats; experiment: Plasma metabolite profiling (GC-MS/LC-MS) for liver toxicity markers, 28-day gavage study, female rats; format: in vivo, rat; conditions: for Glycerol-3-Phosphate, polar fraction, change of plasma metabolite / Glucose, change of plasma metabolite / Cholesterol, change of plasma metabolite: female rats
Method: as §1, §2, §3, §4, §5

[3] = Table 4, female rats, fh7 (day 7)
[4] = Table 4, female rats, fh14 (day 14)
[5] = Table 4, female rats, fh28 (day 28)

## CC(=O)Nc1ccc(O)cc1 [N-Acetyl-p-Aminophenol]
[1]; mh7 (day 7)
  4-Hydroxyphenylpyruvic acid, change of plasma metabolite: 3.04
  18:1 Lyso PC, change of plasma metabolite: 1.02
  Glycerol-3-Phosphate, polar fraction, change of plasma metabolite: 1.41
  alpha-Tocopherol, change of plasma metabolite: 1.21
[1]; mh14 (day 14)
  4-Hydroxyphenylpyruvic acid, change of plasma metabolite: 4.89
  4-Hydroxysphinganine, change of plasma metabolite: 1.61
  18:1 Lyso PC, change of plasma metabolite: 1.16
  Glycerol-3-Phosphate, polar fraction, change of plasma metabolite: 1.54
  Phosphatidylcholine No 01, change of plasma metabolite: 1.21
[2]; [3]
  Behenic acid (C22:0), change of plasma metabolite: 1.11
  Coenzyme Q9, change of plasma metabolite: 2.21
  Eicosatrienoic acid No 01, change of plasma metabolite: 1.15
  Glycerol, lipid fraction, change of plasma metabolite: 1.54
  Glycerolphosphate, lipid fraction, change of plasma metabolite: 1.13
  Heptadecanoic acid (C17:0), change of plasma metabolite: 1.31
  Linoleic acid (C18:cis[9,12]2), change of plasma metabolite: 1.43
  Nervonic acid (C24:1), change of plasma metabolite: 1.19
  Palmitic acid (C16:0), change of plasma metabolite: 1.16
  Phosphatidylcholine No 01, change of plasma metabolite: 1.30
  Sphingolipids (5-Methoxysphingosine), change of plasma metabolite: 1.31
  Sphingolipids (erythro-Sphingosine), change of plasma metabolite: 1.11
[2]; [4]
  14-Methylhexadecanoic acid, change of plasma metabolite: 1.20
  Behenic acid (C22:0), change of plasma metabolite: 1.39
  Coenzyme Q9, change of plasma metabolite: 1.39
  DAG (C18:1, C18:2), change of plasma metabolite: 1.63
  Eicosatrienoic acid No 01, change of plasma metabolite: 1.91
  Glycerol, lipid fraction, change of plasma metabolite: 1.56
  Heptadecanoic acid (C17:0), change of plasma metabolite: 1.34
  Linoleic acid (C18:cis[9,12]2), change of plasma metabolite: 1.82
  Nervonic acid (C24:1), change of plasma metabolite: 1.35
  Palmitic acid (C16:0), change of plasma metabolite: 1.50
  Phosphatidylcholine No 01, change of plasma metabolite: 1.34
  Sphingolipids (5-Methoxysphingosine), change of plasma metabolite: 1.41
  Sphingolipids (erythro-Sphingosine), change of plasma metabolite: 1.29
  TAG No 01, change of plasma metabolite: 2.93
[2]; [5]
  14-Methylhexadecanoic acid, change of plasma metabolite: 1.68
  Coenzyme Q9, change of plasma metabolite: 1.19
  DAG (C18:1, C18:2), change of plasma metabolite: 1.86
  Eicosanoic acid (C20:0), change of plasma metabolite: 1.73
  Eicosatrienoic acid No 01, change of plasma metabolite: 2.08
  Glycerol, lipid fraction, change of plasma metabolite: 2.04
  Glycerolphosphate, lipid fraction, change of plasma metabolite: 1.82
  Heptadecanoic acid (C17:0), change of plasma metabolite: 1.64
  Linoleic acid (C18:cis[9,12]2), change of plasma metabolite: 2.68
  Palmitic acid (C16:0), change of plasma metabolite: 2.03
  TAG No 01, change of plasma metabolite: 3.85
[2]; Table 4, first listing (r8), fh7 (day 7)
  Glycerol-3-Phosphate, polar fraction, change of plasma metabolite: 1.68
[2]; Table 4, first listing (r8), fh14 (day 14)
  Glycerol-3-Phosphate, polar fraction, change of plasma metabolite: 1.18
[2]; Table 4, first listing (r10), fh7 (day 7)
  Glucose, change of plasma metabolite: 1.25
[2]; Table 4, first listing (r10), fh28 (day 28)
  Glucose, change of plasma metabolite: 1.17
[2]; Table 4, first listing (r14), fh28 (day 28)
  Cholesterol, change of plasma metabolite: 1.41
[2]; Table 4, second listing (r26), fh7 (day 7)
  Cholesterol, change of plasma metabolite: 1.21
[2]; Table 4, second listing (r26), fh14 (day 14)
  Cholesterol, change of plasma metabolite: 1.42
[2]; Table 4, second listing (r26), fh28 (day 28)
  Cholesterol, change of plasma metabolite: 1.74
[2]; Table 4, second listing (r27), fh28 (day 28)
  Glucose, change of plasma metabolite: 1.04
[2]; Table 4, second listing (r28), fh7 (day 7)
  Glycerol-3-Phosphate, polar fraction, change of plasma metabolite: 1.93
[2]; Table 4, second listing (r28), fh14 (day 14)
  Glycerol-3-Phosphate, polar fraction, change of plasma metabolite: 1.35
[2]; Table 4, second listing (r28), fh28 (day 28)
  Glycerol-3-Phosphate, polar fraction, change of plasma metabolite: 1.20
